Laboratory results reported in patent US20170119892A1, “REFILLABLE DRUG DELIVERY DEVICES AND METHODS OF USE THEREOF” (President and Fellows of Harvard College, priority 2014, published 2017).

Experiments:
[1] = tested on: MDA-MB-231 xenograft tumors; assay: Xenograft tumor study with drug refilling; type: in vivo, J:Nu mice; conditions: 120 ug doxorubicin per animal IV weekly
Experimental: Tumors were created by injecting 10^6 MDA-MB-231 cells (American Type Culture Collection, VA) combined with Matrigel (BD Biosciences, CA) to a total volume of 200 μL (100 μL PBS and 100 μL Matrigel) into the hind limbs of 8 week old J:Nu (Foxn1^nu/Foxn1^nu) mice (Jackson Labs, ME). 35 days following tumor inoculation tumors were injected with alginate gels. 20 mg/mL alginate conjugated to DNA (thioT-SH or unconjugated) was mixed with doxorubicin (1.6 mg drug per mL of gel), then crosslinked with 4% wt/v CaSO4 (1.22 M) and then 50 μL of gel were injected into tumors with a 23-gauge needle. 2, 3, 4, and 5 weeks after initial tumoral gel injection, mice were injected retro-orbitally with 100 μL 0.5% DNA-conjugated alginate carrying doxorubicin (5% oxidized alginate, thioA-SH, Dye-750, 160 ug Dox-hydrazide=120 μg Dox). Throughout the study, tumor area was measured twice per week with digital calipers in two dimensions and the product of the two dimensional values was used to approximate tumor area. Mice were sacrificed on day 49. […]
Immunocompromised mice bearing MDA-MB-231 xenograft tumors were injected intra-tumor with phosphorothioate DNA-conjugated alginate gels releasing doxorubicin (80 ug per animal) or bolus doxorubicin in PBS. […] The ability of targeted therapy to reduce tumor size was assessed by monitoring the change in tumor size in the three days following each IV administration.

[2] = tested on: Alginate conjugated to (T)20 oligonucleotides, ionically crosslinked with calcium to form a gel; assay: Binding of fluorescently-labeled oligonucleotides to DNA-conjugated calcium-alginate gels in vitro; conditions: phosphate buffer with 1 mM calcium chloride
[3] = Alginate circulation time in the blood; type: in vivo, C57/B6 mice
Experimental: C57/B6 mice were injected retro-orbitally with 100 μL 0.5% fluorescent alginate (unoxidized alginate, Dye-750). Mice were shaved on the front and back and imaged with an IVIS Spectrum in vivo imager (ex: 745, em: 820) over 30 days. Shaving was repeated before every image collection. Fluorescence in the blood was measured through quantification of fluorescence in the snout area.
Efficient blood-based refilling of drug payloads relies on sufficient circulation lifetimes that allow payloads to encounter and bind to the primary device. The circulation time of alginate (285 KDa, 44 nm hydrodynamic radius (Rh)) conjugated to a near-IR probe (FIG. 6A) was analyzed following intravenous (IV) administration to mice. […] With a long circulation time, alginate can serve as an efficient intra-vascular drug carrier with the capability of extravasating and interacting with the primary drug delivery device.

For COc1cccc2c1C(=O)c1c(O)c3c(c(O)c1C2=O)C[C@@](O)(C(=O)CO)C[C@@H]3O[C@H]1C[C@H](N)[C@H](O)[C@H](C)O1 [doxorubicin], the “change in tumor size in the three days following each IV administration” value [1] was “continued to grow”.

With “(A)20: fluorescently-labeled AAAAAAAAAAAAAAAAAAAA-FAM oligonucleotide, SEQ ID NO: 6” the “binding of fluorescently-labeled oligonucleotides to gel surface” value [2] was “bound to the gel surface in a sequence-specific manner”.

For “(T)20: fluorescently-labeled TTTTTTTTTTTTTTTTTTTT-FAM oligonucleotide, SEQ ID NO: 5”, the “binding of fluorescently-labeled oligonucleotides to gel surface” value [2] was “little binding”.

In the case of alginate, the circulatory half-life ([3]; IV administration to mice) is reported as “about seven”, the remained in circulation ([3]; IV administration to mice, blood fluorescence measured at snout) is reported as “at least 14 days” and the “organ accumulation (imaging of individual organs)” value ([3]; two days after injection) is reported as “accumulation in the lungs, liver, spleen, and to a lesser extent in the kidneys”.
